Patent US20100130579A1, “CANCER THERAPY” (Georgetown University, priority 2006, published 2010)

Legend:
RASSF1 gene = test: Gene array (microarray) analysis of RASSF1 expression; format: cell-based, human; conditions: PC3 cells, 2 μg/ml mahanine, 2 days, compared to vehicle-treated control
Protocol: FIGS. 1A-1D. Mahanine induces RASSF1A in prostate and other cancer cells. FIG. 1A: Microarray analyses of PC3 cells treated with ([…] (+) or vehicle (−) for 2 days, RNA was extracted and microarray analysis was performed. FIG. 1B: RT-PCR data showing the expression of RASSF1A and GAPDH in untreated normal prostate epithelial cells (PrEC) and human prostate cancer cells (PC3). FIG. 1C: PC3 (left panel) and LNCaP (right panel) cells were treated with 0, 1, 2 and 3 μg/ml mahanine for 3 days. RNA was extracted, and RT-PCR assays were performed to detect RASSF1A and GAPDH expression. Representative photograph from an experiment that was repeated thrice. Quantitative estimations of relative levels of RASSF1A mRNAs (lower panels) were determined by densitometric measurements of RT-PCR gels from three independent experiments after normalization with GAPDH. […]
Microarray analysis: Total RNA was isolated from […] cells treated with or without mahanine using TRIZOL reagent (Invitrogen Corp., Carlsbad, Calif.). […] RNA was evaluated by electrophoresis before continuing with probe synthesis and hybridization. […] Following repetitive washing in saline-sodium citrate/SDS, hybridized cDNA probes were detected by chemiluminescence. […] Bound biotinylated cDNA probe was detected with alkaline phosphatase-conjugated streptavidin and CDP-Star chemiluminescent substrate (SuperArray). […]

cyclin D1 = test: RT-PCR of cyclin D1 mRNA in cancer cells; format: cell-based, human
Akt = conditions: prostate cancer cells; cited from earlier work

## CC(C)=CCC[C@@]1(C)C=Cc2c(c(C)cc3c2[nH]c2cc(O)ccc23)O1 [mahanine]
RASSF1 gene
  RASSF1 gene expression (gene array): dramatically induced
Cyclin D1; PC3 cells, 1, 2 and 3 μg/ml, 3 days
  cyclin D1 expression (RT-PCR): down-regulated the expression of cyclin D1 in PC3 cells in a dose-dependent manner
Cyclin D1; epidermoid (A431), lung (A549), pancreatic (ASPC-1), colon (HT-29), breast (MCF7) and ovarian (SKOV-3) cancer cells, 2 and 3 μg/ml, 2 days
  cyclin D1 expression (RT-PCR): down regulation of cyclin D1
Akt
  Akt activation state: deactivated Akt
